Earlier results, collected in patent US9549925B2, “Lipid-based compositions of antiinfectives for treating pulmonary infections and methods of use thereof” (Insmed Incorporated, priority 2005, dated 2017).

Details: free tobramycin, nebulized, nominal dose 300 mg; absorption into the systemic circulation

In the case of `NC[C@H]1O[C@H](O[C@H]2[C@H](O)[C@@H](O[C@H]3O[C@H](CO)[C@@H](O)[C@H](N)[C@H]3O)[C@H](N)C[C@@H]2N)[C@H](N)C[C@@H]1O` [tobramycin, Tobramycin], the “absorption half-life from the lung” value is listed as “about 1.5 hr”.
